The values below come from ChEMBL document CHEMBL1201862, “PubChem BioAssay data set” (2004).

Test systems include NCI/ADR-RES; NCI-H522; SK-MEL-28; HCT-15; COLO 205; EKVX; MCF7; CCRF-CEM; NCI-H23; OVCAR-5; M14; NCI-H226; HOP-62; NCI-H460; A549; T47D; LOX IMVI; HCT-116.
Common to all, as to experiment: DTP human tumour cell line panel, 48 h

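Five concentrations, 48 hours, 96-well plates. At the GI50, growth is halved.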 Calls of active or inactive are those of the source. No stated cut-off is given here; in the data, active = GI50 up to about 1.1 µM and inactive = higher.

One may read the GI50 as the concentration that inhibits growth by half. In the case of `O=C(O)c1cc(C(=O)O)nc(C(=O)O)c1`, the GI50 is > 100 µM (inactive) in the test with NCI/ADR-RES; > 100 µM (inactive) in the test on NCI-H522; > 100 µM (inactive) in the test with SK-MEL-28; above 100 µM with HCT-15; > 100 µM (inactive) in the test on COLO 205; > 100 µM (inactive) with EKVX. In addition, the GI50 in the test with MCF7 is > 100 µM (inactive); in the test on CCRF-CEM it was 42.7 µM (inactive); with NCI-H23, > 100 µM (inactive); with OVCAR-5, > 100 µM (inactive); in the test with M14, > 100 µM (inactive); in the test on NCI-H226, > 100 µM (inactive). Moreover, the GI50 with HOP-62, in the test on NCI-H460, in the test with A549, with T47D, in the test with LOX IMVI and in the test on HCT-116 was > 100 µM (inactive) in each case.

For `Cc1ccc(-c2nc3cc([N+](=O)[O-])ccc3[nH]2)cc1`, the GI50 with NCI/ADR-RES is 40.8 µM (inactive); in the test with NCI-H522 it was 41.7 µM (inactive); in the test on SK-MEL-28, > 100 µM (inactive); with HCT-15, 52.8 µM; in the test with COLO 205, 72.9 µM (inactive); in the test with EKVX it was 51.6 µM (inactive). Further, the GI50 in the test with MCF7 was > 100 µM (inactive); with CCRF-CEM it was 39.6 µM (inactive); in the test on NCI-H23, > 100 µM (inactive); in the test on M14, > 100 µM (inactive); with NCI-H226, > 100 µM (inactive); in the test with HOP-62, > 100 µM (inactive). The GI50 was 42.8 µM (inactive) in the test on NCI-H460; 54.1 µM (inactive) in the test with A549; 39.6 µM (inactive) in the test with T47D; 80.5 µM (inactive) in the test on LOX IMVI; 89.9 µM (inactive) with HCT-116.

`CC[P+](c1ccccc1)(N(C)C)N(C)C`: the GI50 in the test on NCI/ADR-RES is > 100 µM (inactive); in the test with NCI-H522, 89.5 µM (inactive); in the test with SK-MEL-28, > 100 µM (inactive); in the test with HCT-15, above 100 µM; with COLO 205 it was > 100 µM (inactive); in the test with EKVX, > 100 µM (inactive). In addition, the GI50 is > 100 µM (inactive) in the test on MCF7; > 100 µM (inactive) with CCRF-CEM; > 100 µM (inactive) in the test on NCI-H23; > 100 µM (inactive) in the test on OVCAR-5; > 100 µM (inactive) in the test on M14; 59.8 µM (inactive) in the test with NCI-H226. Further, the GI50 in the test with HOP-62, with NCI-H460, in the test on A549, in the test on T47D, with LOX IMVI and with HCT-116 was > 100 µM (inactive) throughout.

For the compound `CN(C)c1ccc2nc3c(C(=O)O)cc(O)c(O)c3[o+]c2c1`, the GI50 in the test on NCI/ADR-RES is 28.7 µM (inactive); with NCI-H522, 5.48 µM (inactive); in the test with SK-MEL-28, 43 µM (inactive); with HCT-15, 37.5 µM; in the test on COLO 205, 24.7 µM (inactive); with EKVX, 26.4 µM (inactive). In addition, the GI50 in the test with MCF7 is 21.1 µM (inactive); in the test on CCRF-CEM, 10.5 µM (inactive); in the test on NCI-H23 it was 16.8 µM (inactive); in the test with OVCAR-5, 65.3 µM (inactive); in the test on M14, 21.7 µM (inactive); in the test with NCI-H226, 56.5 µM (inactive). Moreover, the GI50 with HOP-62 was 52.8 µM (inactive); in the test with NCI-H460, 24.8 µM (inactive); with A549, > 100 µM (inactive); in the test with T47D it was 15.1 µM (inactive); with LOX IMVI, 33.1 µM (inactive); with HCT-116, 24.9 µM (inactive).

`O=C1C=C(Nc2cccnc2)c2ccccc2/C1=N/O`: the GI50 with NCI/ADR-RES is 21.5 µM (inactive); in the test with NCI-H522, 9.89 µM (inactive); in the test on HCT-15, 15.2 µM; in the test on COLO 205, 19.4 µM (inactive); in the test with EKVX it was 14.7 µM (inactive); in the test on MCF7 it was 21.6 µM (inactive). Moreover, the GI50 with CCRF-CEM was 5.85 µM (inactive); with NCI-H23 it was 19.7 µM (inactive); in the test on OVCAR-5, > 100 µM (inactive); with M14, 23.2 µM (inactive); with NCI-H226, 58.7 µM (inactive); in the test on HOP-62, 23 µM (inactive). Also, the GI50 in the test on NCI-H460 was 22.8 µM (inactive); in the test on A549, 39.6 µM (inactive); with T47D it was 30.1 µM (inactive); in the test with LOX IMVI, 26.3 µM (inactive); with HCT-116 it was 26.6 µM (inactive).

Consider `C=CCn1c(=O)c2ccccc2[n+]2c(-c3cccc([N+](=O)[O-])c3)csc12`, for which the GI50 in the test on NCI/ADR-RES is 17.1 µM (inactive); in the test on NCI-H522, 36.1 µM (inactive); in the test on SK-MEL-28, 66.7 µM (inactive); in the test with COLO 205 it was 24.8 µM (inactive); in the test with EKVX it was 33.7 µM (inactive); in the test with MCF7, 42.9 µM (inactive). The GI50 was 27.5 µM (inactive) in the test on CCRF-CEM; 54.5 µM (inactive) in the test with NCI-H23; > 100 µM (inactive) in the test with OVCAR-5; 62.7 µM (inactive) in the test with M14; 12.5 µM (inactive) in the test on NCI-H226; 76.7 µM (inactive) in the test on HOP-62. Besides, the GI50 with NCI-H460 was 42.1 µM (inactive); in the test on A549, 42.2 µM (inactive); in the test on T47D it was 19.7 µM (inactive); in the test with LOX IMVI it was 56.8 µM (inactive); with HCT-116 it was 38.9 µM (inactive).

Take `O=c1cc(-c2ccccc2)[nH]c2ccc(N3CCOCC3)cc12`: the GI50 in the test with NCI/ADR-RES is 0.0435 µM (active); in the test on NCI-H522, 0.0173 µM (active); in the test on SK-MEL-28, 0.0128 µM (active); in the test on HCT-15, 0.0241 µM; with COLO 205, 0.0182 µM (active); with EKVX, 53 µM (inactive). The concentration for 50% growth inhibition (GI50) is 0.0327 µM (active) with MCF7; 0.0144 µM (active) in the test with CCRF-CEM; 0.0414 µM (active) in the test with NCI-H23; 0.0173 µM (active) with M14; 0.0319 µM (active) with NCI-H226; 0.0241 µM (active) with HOP-62. The GI50 in the test on NCI-H460 was 0.0465 µM (active); in the test with A549, 0.0773 µM (active); in the test on T47D, > 100 µM (inactive); in the test on LOX IMVI, 0.0335 µM (active); in the test on HCT-116, < 0.0167 µM (active).

Turning to `COc1cc(C2c3cc4c(cc3OC(NN)C2C)OCO4)cc(OC)c1OC` (stereo not given), the GI50 in the test on NCI/ADR-RES was 1.06 µM (active); in the test on NCI-H522, 0.869 µM (active); with SK-MEL-28, 50.8 µM (inactive); in the test with HCT-15, 0.406 µM; with COLO 205, 0.575 µM (active); with EKVX, 10.2 µM (inactive). Further, the GI50 is 0.443 µM (active) in the test with MCF7; 0.405 µM (active) in the test on CCRF-CEM; 1.11 µM (active) with NCI-H23; 0.483 µM (active) with M14; 0.979 µM (active) with NCI-H226; 0.462 µM (active) with HOP-62. The GI50 was 0.489 µM (active) in the test with NCI-H460; 1.58 µM (inactive) in the test on A549; 87.3 µM (inactive) in the test on T47D; 0.458 µM (active) in the test on LOX IMVI; 0.473 µM (active) in the test with HCT-116.

Regarding `Brc1cccc(/N=N/N2CCCC2)c1`, the GI50 in the test with NCI/ADR-RES was 81.5 µM (inactive); in the test with NCI-H522 it was 68.9 µM (inactive); with HCT-15, 49.4 µM; with COLO 205 it was > 100 µM (inactive); in the test with EKVX, 97.9 µM (inactive); in the test on MCF7, > 100 µM (inactive). In addition, the GI50 in the test on CCRF-CEM is 49.2 µM (inactive); with NCI-H23, 67.9 µM (inactive); with OVCAR-5, > 100 µM (inactive); with M14, > 100 µM (inactive); with NCI-H226, > 100 µM (inactive); in the test on HOP-62 it was > 100 µM (inactive). Further, the GI50 was > 100 µM (inactive) in the test on NCI-H460, 50.2 µM (inactive) in the test on T47D, 77.1 µM (inactive) with LOX IMVI and 92.3 µM (inactive) with HCT-116.
